Measurements taken from US9701987B2, “Fermentation process for the production and control of pyruvate-derived products” (priority 2014, dated 2017).
Read-outs that look alike come from different tables or passages of the source.

Assays:
[1] = test system: Clostridium ljungdahlii; conditions: WO 2002/08438; cited from earlier work
[2] = test system: Clostridium autoethanogenum; assay: Example 3: fermentation with excess vitamin B5 from the start, effect on 2,3-BDO production; format: cell-based
Method: The example above can be compared to results when excess B5 vitamin is present in the fermentation media throughout the fermentation. […] In this case the 2,3-BDO concentration reached 9 g/L with an ethanol:2,3-BDO ratio of 2:1 (FIG. 2), and a CO uptake of 9.4 mol/L/day (FIG. 3). The feed rate of B5 vitamin throughout the fermentation was >2000 μg/g-cell produced. During day 6.0 to 7.0 as the biomass and 2,3-BDO production flattened out the feed rate of B5 vitamin was 2011 μg/g-cell produced. The specific 2,3-BDO production rate was 1.2 g/day per g-biomass, the specific ethanol production rate was 2.4 g/day per g-biomass.

[3] = test system: Clostridium autoethanogenum; assay: Example 1: fermentation with vitamin B5 concentration increased during the run, effect on 2,3-BDO production; format: cell-based
Method: This experiment was carried out according to the general fermentation process described above. […] Dilution rate and bacterial dilution rate were adjusted so that by day 5.0 these were 1.8 day^−1 and 0.85 day^−1, respectively.
On day 8.1 the concentration of vitamin B5 in media was increased 10 fold with all other operational parameters remaining the same. During this time the biomass production rate dropped slightly so accordingly the vitamin B5 feed rate was increased just over tenfold to 2180 μg/g-cell produced. Following the increase in the vitamin B5 concentration, the specific 2,3-BDO production rate and concentration increased with other parameters remaining stable.
This is a surprising result as it is only the specific 2,3-BDO production rate and the concentration of 2,3-BDO that increases while the production rate of other metabolites, e.g. ethanol and biomass remains the same.

[4] = test system: Clostridium autoethanogenum
From the text: A fermentation was started using the general fermentation process with gas and agitation were increased to minimize acetate and maximize ethanol production. Dilution rate and bacterial dilution rate were adjusted by day 4.0 to 2.0 day-^1 and 1.2 day-1, respectively. These values were maintained for the remainder of the fermentation.
On day 14.1 the concentration of B1 in media was decreased to reduce the specific B1 feed rate with all other operational parameters being kept constant.
It has been reported in the art that the limiting concentration of B1 for growth and acetate production is 6.5 μg/g cell produced.

[5] = reported in the art; cited from earlier work
[6] = test system: Clostridium autoethanogenum; assay: Example 5: fermentation with vitamin B7 concentration increased then reduced, effect on 2,3-BDO production; format: cell-based
Method: In this example the impact of B7 on the production of 2,3-BDO was tested using a fermentation grown according to the general fermentation process. […] Dilution rate and bacterial dilution rate were adjusted so that by day 8.0 these were 1.8 day^−1 and 0.75 day^−1 respectively. […] The results achieved at that time are summarised below;
On day 8.69 the concentration of B7 in media was increased 10 fold with all other operational parameters being kept constant. During this time the biomass production rate remained stable so the B7 feed rate was increased over tenfold to 980 μg/g cell produced. Following the increase in the B7 feed the specific 2,3-BDO production rate and the concentration of 2,3-BDO increased. The data obtained from days 13-14 are summarised below;
As the 2,3-BDO concentration was reaching a peak (day 14.04) the B7 in the media was reduced 10 fold such that the specific B7 feed rate was reduced back to 90 μg/g cell produced.
This is a surprising result as it is the specific 2,3-BDO production rate and the concentration of 2,3-BDO that increases rather than any other metabolite and or biomass.

[7] = B5 vitamin feed rate 2011 μg/g-cell produced, day 6.0 to 7.0
[8] = B5 vitamin feed rate >2000 μg/g-cell produced throughout the fermentation
[9] = vitamin B5 feed rate 198 μg/g-cell produced, day 6.0-8.0
[10] = vitamin B5 feed rate 2180 μg/g cell produced
[11] = vitamin B1 feed rate 303 μg/g cell produced, day 10.0-14.0
[12] = vitamin B1 feed rate decreased to 61 μg/g cell produced
[13] = vitamin B7 feed rate 90 μg/g cell produced, before increase
[14] = vitamin B7 feed rate 980 μg/g cell produced, days 13-14
[15] = vitamin B7 reduced back to 90 μg/g cell produced (after day 14.04)

CC(C)(CO)[C@@H](O)C(=O)NCCC(=O)O [vitamin B5, Pantothenic acid]
vitamin B5 required for growth [1]: 50 μg/g biomass produced
Specific 2,3-BDO production rate [2, 7]: 1.2 g/day per g-biomass
Specific Ethanol production rate [2, 7]: 2.4 g/day per g-biomass
2,3-BDO concentration [2, 8]: 9 g/L
CO uptake [2, 8]: 9.4 mol/L/day
2,3-BDO concentration [3, 9]: 4.8 g/L
Acetate concentration [3, 9]: 7.75 g/L
CO uptake [3, 9]: 8.4 mol/L/day
Ethanol concentration [3, 9]: 18.69 g/L
Specific 2,3-BDO production rate [3, 9]: 0.81 g 2,3-BDO/g-biomass/day
Specific Ethanol production rate [3, 9]: 3.17 g ethanol/g-biomass/day
Biomass ([3]; vitamin B5 feed rate 198 μg/g-cell produced, stable period day 6.0-8.0): 10.62 g/L
2,3-BDO concentration [3, 10]: 7.0 g/L
CO uptake [3, 10]: 8.0 mol/L/day
Ethanol concentration [3, 10]: 19.49 g/L
Specific 2,3-BDO production rate [3, 10]: 1.32 g 2,3-BDO/g biomass/day
Specific Ethanol production rate [3, 10]: 3.3 g ethanol/g biomass/day
Biomass ([3]; vitamin B5 feed rate 2180 μg/g cell produced, after 10 fold increase on day 8.1): 10.4 g/L

Cc1ncc(C[n+]2csc(CCO)c2C)c(N)n1.Cl.[Cl-] [vitamin B1, Thiamine hydrocloride]
effect of decreasing the B1 concentration on ethanol production ([4]; B1 feed rate 303 to 61 μg/g cell produced, CO uptake constant): unaffected
2,3-BDO concentration [4, 11]: 3.4 g/L
Biomass [4, 11]: 5.79 g/L
CO uptake [4, 11]: 8.0 mol/L/day
Ethanol concentration [4, 11]: 16.05 g/L
Specific 2,3-BDO production rate [4, 11]: 1.17 g 2,3-BDO/g biomass/day
Specific Ethanol production rate [4, 11]: 5.54 g ethanol/g biomass/day
2,3-BDO titre [4, 12]: 1.6 g/L
Biomass [4, 12]: 6.75 g/L
CO uptake [4, 12]: 8.0 mol/L/day
Ethanol concentration [4, 12]: 18.23 g/L
Specific 2,3-BDO production rate [4, 12]: 0.47 g 2,3-BDO/g biomass/day
Specific Ethanol production rate [4, 12]: 5.4 g ethanol/g biomass/day
limiting concentration of B1 for growth and acetate production [5]: 6.5 μg/g cell produced

O=C(O)CCCC[C@@H]1SC[C@@H]2NC(=O)N[C@@H]21 [vitamin B7, Biotin]
impact of increasing B7 on the specific ethanol production rate ([6]; B7 feed rate 90 to 980 μg/g cell produced): does not impact
2,3-BDO concentration [6, 13]: 4.94 g/L
Acetate concentration [6, 13]: 8.13 g/L
Biomass [6, 13]: 9.42 g/L
CO uptake [6, 13]: 8.0 mol/L/day
Ethanol concentration [6, 13]: 15.63 g/L
Specific 2,3-BDO production rate [6, 13]: 1.19 g 2,3-BDO/g biomass/day
Specific Ethanol production rate [6, 13]: 3.78 g ethanol/g biomass/day
2,3-BDO concentration [6, 14]: 7.34 g/L
Biomass [6, 14]: 9.23 g/L
CO uptake [6, 14]: 7.6 mol/L/day
Ethanol concentration [6, 14]: 14.92 g/L
Specific 2,3-BDO production rate [6, 14]: 1.97 g 2,3-BDO/g biomass/day
Specific Ethanol production rate [6, 14]: 3.85 g ethanol/g biomass/day
2,3-BDO concentration [6, 15]: 4.76 g/L
Biomass [6, 15]: 10.53 g/L
CO uptake [6, 15]: 7.6 mol/L/day
Ethanol concentration [6, 15]: 15.70 g/L
Specific 2,3-BDO production rate [6, 15]: 1.1 g 2,3-BDO/g biomass/day
Specific Ethanol production rate [6, 15]: 3.59 g ethanol/g biomass/day
